{"source": "patent US20190022091A1", "about": "“METHOD OF TREATMENT FOR MENTAL DISORDERS” (SUMITOMO DAINIPPON PHARMA CO., LTD., priority 2010, published 2019)", "key": {"common marmosets": {"test_system": "common marmosets", "assay": "ORD test (object retrieval with detour test) in marmosets", "assay_type": "in vivo, common marmoset", "settings": "for variation of the correct % of the ORD test (difficult task): single oral administration, test 2 hours after administration vs before, FIG. 2-6", "description": "ORD test (object retrieval with detour test) is already reported as a method for evaluating executive function (attention function/impulsiveness) in primates.\nMale and female common marmosets having body weights of 250-450 g were used. Haloperidol, clozapine, olanzapine, risperidone, and lurasidone hydrochloride were separately suspended in 0.5% methylcellulose (MC), and then each suspension was orally administered in a dose of 5 mL/kg to the marmosets. On the other hand, L-745,870 which is a D4 antagonist, and Ro 10-5824 which is a D4 agonist were separately dissolved in saline, and then each solution was intramuscularly administered to the femoris area in a dose of 0.5 mL/kg.\nAccording to the method described in the literature (Psychopharmacology (2006) 196: 643-648) which was partially modified, the ORD test was carried out as follows (see FIG. 1).\nIn each of the boxes, 0.3-0.5 g of Baumkuchen as a food reward is placed at the point of each triangle in FIG. 1. The marmoset can reach out from the cage (shown as dotted line region) to obtain the reward placed in the acrylic box. FIG. 1 is a view from the directly above. Amongst the situations between each direction of the box and each position of the reward, 5 patterns (line of sight, left outside, left inside, right outside, and right inside) are defined as “easy task”, and the other 2 patterns (left deep, and right deep) are defined as “difficult task”. It is recorded as “correct” when the test animal can obtain the reward in one trial, while it is recorded as “incorrect” when the animal can obtain the reward in the second trial or later.\nThe ORD test is carried out in the order described in the following table without any interval between each trial, which is referred to as “one series”. The marmoset is made to be trained with the one series once a day.\nThe marmosets were trained with the ORD test at least 10 times, and then the trained marmosets were used in the following main test.\nThe main ORD test was carried out as follows.\n(1) The ORD test is carried out before administering each test drug (former value). Hereinafter, the ORD test is done in one series containing the 17 trials corresponding to the above-mentioned training.\n(2) Two hours after administering each test drug, the same ORD test is carried out again (latter value). In case of the combined administration, the first drug (lurasidone hydrochloride) is administered; one hour later, the second drug (the D4 antagonist or D agonist) is administered; and then the ORD test is done one hour after the second drug is administered.\n(3) The variation of correct % in the Difficult task is calculated according to the following formula in order to evaluate the effect of each drug. For example, in case that the “correct count” in the before-administration test (former value) is 3 and the “correct count” in the after-administration test (latter value) is 5, the “correct %” is calculated to rise in 25% (=(5-3)/8×100%) based on the fact that the trial count of the difficult task in each series is 8.\nThe variation of the correct %={the difference between the both correct counts in the difficult task (latter value−former value)}/8×100\n(4) The amount of Baumkuchen is 0.5 g×17=8.5 g in one series. The marmoset can be tested at most 2 sets per day, i.e. it has been confirmed that the marmoset can take at most 17 g of Baumkuchen per day, but, all the test marmosets cannot be satisfied with 17 g of Baumkuchen.\n(5) In case that a marmoset treated with the drug is used again, the marmoset is given in 2 week-drug-holidays, and before the test it is confirmed that the previous medication will not affect the test.\n(6) 5 to 6 marmosets were used per one test group. When a marmoset (s) suffered from vomiting or cataleptic akinesia induced by the drug and then the ORD test with the marmoset (s) could not be done, the data of the marmoset(s) were excluded. […]"}, "[1]": {"molecular_target": "T1, noradrenaline α2c receptors (Homo sapiens, UniProt P18825)", "T1 sequence (P18825 1-462)": "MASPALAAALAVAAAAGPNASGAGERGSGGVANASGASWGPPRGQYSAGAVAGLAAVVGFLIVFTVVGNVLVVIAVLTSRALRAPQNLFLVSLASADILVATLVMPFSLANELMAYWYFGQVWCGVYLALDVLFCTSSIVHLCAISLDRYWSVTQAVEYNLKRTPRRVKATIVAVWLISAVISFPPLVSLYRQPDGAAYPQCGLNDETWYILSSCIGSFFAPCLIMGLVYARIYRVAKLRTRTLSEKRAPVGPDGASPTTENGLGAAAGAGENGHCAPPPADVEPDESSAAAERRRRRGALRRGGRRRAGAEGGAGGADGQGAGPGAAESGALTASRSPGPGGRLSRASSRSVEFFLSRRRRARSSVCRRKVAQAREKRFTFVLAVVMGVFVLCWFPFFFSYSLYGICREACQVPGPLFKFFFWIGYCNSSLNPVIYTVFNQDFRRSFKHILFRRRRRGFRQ", "settings": "cited from earlier work"}, "serotonin 5-HT1A": {"molecular_target": "T2, serotonin 5-HT1A (Homo sapiens, UniProt P08908)", "T2 sequence (P08908 1-422)": "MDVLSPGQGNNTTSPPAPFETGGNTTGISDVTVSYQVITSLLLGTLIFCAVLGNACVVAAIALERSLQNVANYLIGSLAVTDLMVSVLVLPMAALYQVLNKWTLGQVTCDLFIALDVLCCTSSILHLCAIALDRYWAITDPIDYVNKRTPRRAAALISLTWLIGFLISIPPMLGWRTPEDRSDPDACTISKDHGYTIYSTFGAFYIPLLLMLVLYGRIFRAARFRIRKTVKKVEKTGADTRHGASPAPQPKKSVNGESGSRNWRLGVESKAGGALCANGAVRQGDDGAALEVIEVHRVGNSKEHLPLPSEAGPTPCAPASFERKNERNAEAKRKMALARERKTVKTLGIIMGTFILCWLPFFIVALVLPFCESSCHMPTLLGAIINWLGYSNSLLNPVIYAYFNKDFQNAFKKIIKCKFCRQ", "settings": "cited from earlier work"}, "5-HT7": {"molecular_target": "5-HT7 (Homo sapiens, UniProt P34969)", "sequence (P34969 whole entry, species assumed)": "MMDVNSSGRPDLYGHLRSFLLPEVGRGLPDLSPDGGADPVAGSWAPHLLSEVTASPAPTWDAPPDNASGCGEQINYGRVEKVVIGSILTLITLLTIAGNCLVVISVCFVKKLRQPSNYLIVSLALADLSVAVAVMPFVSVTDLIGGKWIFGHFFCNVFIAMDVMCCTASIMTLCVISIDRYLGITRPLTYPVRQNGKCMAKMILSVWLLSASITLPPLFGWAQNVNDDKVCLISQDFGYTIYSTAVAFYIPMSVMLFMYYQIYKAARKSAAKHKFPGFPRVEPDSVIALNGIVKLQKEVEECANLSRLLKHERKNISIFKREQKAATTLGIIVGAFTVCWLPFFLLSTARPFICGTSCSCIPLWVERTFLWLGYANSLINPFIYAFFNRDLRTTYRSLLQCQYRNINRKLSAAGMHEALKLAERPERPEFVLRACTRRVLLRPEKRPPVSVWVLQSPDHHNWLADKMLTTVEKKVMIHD", "settings": "cited from earlier work"}, "5-HT2A": {"molecular_target": "5-HT2A (Homo sapiens, UniProt P28223)", "sequence (P28223 whole entry, species assumed)": "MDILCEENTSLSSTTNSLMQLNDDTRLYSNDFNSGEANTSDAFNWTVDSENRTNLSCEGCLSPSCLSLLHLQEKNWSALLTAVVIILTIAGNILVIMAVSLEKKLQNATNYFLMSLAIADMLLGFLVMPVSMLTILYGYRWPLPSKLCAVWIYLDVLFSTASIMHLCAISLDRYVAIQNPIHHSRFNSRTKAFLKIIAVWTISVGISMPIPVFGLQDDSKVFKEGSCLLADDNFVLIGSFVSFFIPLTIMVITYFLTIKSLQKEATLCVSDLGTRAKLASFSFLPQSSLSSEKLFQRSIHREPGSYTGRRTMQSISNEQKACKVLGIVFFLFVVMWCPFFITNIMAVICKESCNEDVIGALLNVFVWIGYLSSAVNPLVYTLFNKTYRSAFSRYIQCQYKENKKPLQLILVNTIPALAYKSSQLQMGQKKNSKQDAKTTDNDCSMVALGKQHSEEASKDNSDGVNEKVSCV", "settings": "cited from earlier work"}, "muscarinic M1 receptors": {"molecular_target": "T3, muscarinic M1 receptors (Homo sapiens, UniProt P11229)", "T3 sequence (P11229 1-460)": "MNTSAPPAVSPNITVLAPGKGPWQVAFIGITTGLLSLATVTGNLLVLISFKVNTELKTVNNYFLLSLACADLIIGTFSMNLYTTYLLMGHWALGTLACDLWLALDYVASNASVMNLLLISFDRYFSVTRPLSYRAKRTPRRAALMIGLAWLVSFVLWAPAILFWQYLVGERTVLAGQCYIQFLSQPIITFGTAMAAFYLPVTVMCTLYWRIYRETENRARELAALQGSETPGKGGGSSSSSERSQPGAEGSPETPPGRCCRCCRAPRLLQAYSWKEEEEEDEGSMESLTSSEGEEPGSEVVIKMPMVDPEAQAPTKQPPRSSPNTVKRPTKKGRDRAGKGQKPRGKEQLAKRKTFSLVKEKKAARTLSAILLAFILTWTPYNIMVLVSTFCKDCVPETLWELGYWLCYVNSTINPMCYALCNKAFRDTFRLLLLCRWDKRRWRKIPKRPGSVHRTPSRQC", "settings": "cited from earlier work"}, "dopamine D2": {"molecular_target": "dopamine D2 (Homo sapiens, UniProt P14416)", "sequence (P14416 whole entry)": "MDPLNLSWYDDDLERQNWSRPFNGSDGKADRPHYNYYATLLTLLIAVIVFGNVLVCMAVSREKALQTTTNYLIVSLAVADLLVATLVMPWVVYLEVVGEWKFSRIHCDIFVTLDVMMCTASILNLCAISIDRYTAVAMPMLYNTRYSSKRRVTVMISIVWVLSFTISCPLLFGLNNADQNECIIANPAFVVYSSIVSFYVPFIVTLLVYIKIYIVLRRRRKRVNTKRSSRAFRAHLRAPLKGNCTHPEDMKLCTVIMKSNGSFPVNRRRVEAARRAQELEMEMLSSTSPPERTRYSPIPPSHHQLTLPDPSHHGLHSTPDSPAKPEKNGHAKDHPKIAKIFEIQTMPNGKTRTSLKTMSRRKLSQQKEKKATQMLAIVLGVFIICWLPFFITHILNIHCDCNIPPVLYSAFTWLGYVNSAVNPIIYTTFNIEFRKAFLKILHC", "settings": "cited from earlier work"}, "histamine H1": {"molecular_target": "histamine H1 (Homo sapiens, UniProt P35367)", "sequence (P35367 whole entry)": "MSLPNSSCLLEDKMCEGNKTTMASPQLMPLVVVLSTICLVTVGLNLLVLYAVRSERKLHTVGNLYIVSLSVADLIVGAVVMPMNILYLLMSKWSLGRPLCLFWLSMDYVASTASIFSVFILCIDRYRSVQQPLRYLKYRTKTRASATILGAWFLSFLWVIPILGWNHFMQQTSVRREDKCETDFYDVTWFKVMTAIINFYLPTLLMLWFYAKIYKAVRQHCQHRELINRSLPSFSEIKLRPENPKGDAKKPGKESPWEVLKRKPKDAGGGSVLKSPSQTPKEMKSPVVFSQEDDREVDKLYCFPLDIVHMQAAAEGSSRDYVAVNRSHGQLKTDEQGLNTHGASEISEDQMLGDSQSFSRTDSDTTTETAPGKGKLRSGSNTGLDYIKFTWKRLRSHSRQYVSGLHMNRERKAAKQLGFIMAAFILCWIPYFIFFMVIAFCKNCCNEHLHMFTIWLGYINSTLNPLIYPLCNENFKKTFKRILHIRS", "settings": "cited from earlier work"}, "SHRSP rats": {"test_system": "SHRSP rats", "assay": "Y-maze test with juvenile SHRSP rats", "assay_type": "in vivo, rat", "settings": "for Total Arm Entries mean ± SE / % of Alternation Behavior mean ± SE: SHRSP; for Total Arm Entries mean ± SE: 8 minute session; for % of Alternation Behavior mean ± SE: 30 minutes before evaluation", "description": "According to the Y-maze test with juvenile stroke-prone spontaneously hypertensive rats (SHRSP), it is possible to evaluate the effect of lurasidone hydrochloride on attention function with spontaneous Alternation Behavior as an index of attention or concentration (Behav Brain Funct. 2005 Jul. 15; 1:9). Moreover, the effects of lurasidone hydrochloride on hyperactivity, which is one of core symptoms in ADHD, can be confirmed by the total number of the Arm Entries in a Y-maze test.\nFor the estimation of inattentive behavior, male juvenile SHRSP rats as an ADHD model and WKY rats as a reference (4 weeks old, n=8-10/group) are used. These animals are commercially available from Charles River Laboratories Japan, inc. or Hoshino Laboratory animals, inc. Lurasidone hydrochloride (e.g. 0.01, 0.03, 0.1, 0.3, 1, 3 and 10 mg/kg; produced by Dainippon Sumitomo Pharma Co., Ltd.) is dissolved in 0.5% methylcellulose and 0.2% Tween 80, and is administrated intraperitoneally in a volume of 1 ml/kg, 30 minutes before the evaluation.\nThe method of Y-maze test was already reported elsewhere (Behav Pharmacol. 2002 February; 13(1):1-13). The “Arm Entry” means the entry of all four paws into one arm. The “Alternation Behavior”, which is actual alternations, means the consecutive Arm Entries into three different arms. The test is carried out for 8 minutes in one session and the total number that a rat performs the Arm Entry is counted. The “Maximum Alternations” means the total number of the Arm Entries minus two. An index of attention is calculated as a percentage of the Alternation Behavior, as described below.\nA percentage of Alternation Behavior=(the total number of the Alternation Behavior)/(the Maximum Alternations)×100"}}, "note": "Structures can show the parent of a compound that is named as a salt."}
{"smiles": "Clc1ccc(N2CCN(Cc3c[nH]c4ncccc34)CC2)cc1", "note": "[L-745,870]", "values": [{"measurement": "correct % of the ORD test", "setting": "common marmosets; L-745,870 3 mg/kg i.m. combined with lurasidone hydrochloride 10 mg/kg p.o., FIG. 7", "value": "decreased the correct % which was increased by the administration of lurasidone hydrochloride"}, {"measurement": "ORD score", "setting": "common marmosets; single intramuscular administration, 10 mg/kg, FIG. 7", "value": "had no effects on the ORD score"}]}
{"smiles": "O=C1[C@@H]2[C@H]3CC[C@H](C3)[C@@H]2C(=O)N1C[C@@H]1CCCC[C@H]1CN1CCN(c2nsc3ccccc23)CC1", "note": "[Lurasidone, (3aR, 4S, 7R, 7aS)-2-{1(1R,2R)-2-(4-(1,2-benzisothiazol-3-yl)piperazin-1-yl-methyl]cyclohexylmethyl}hexahydro-4,7-methano-2H-isoindole-1,3-dione]", "values": [{"measurement": "affinity", "setting": "[1]", "value": "high affinity"}, {"measurement": "affinity", "setting": "serotonin 5-HT1A", "value": "high affinity"}, {"measurement": "affinity", "setting": "5-HT7", "value": "high affinity"}, {"measurement": "affinity", "setting": "5-HT2A", "value": "high affinity"}, {"measurement": "affinity", "setting": "muscarinic M1 receptors", "value": "minimal to no affinity"}, {"measurement": "affinity", "setting": "dopamine D2", "value": "high affinity"}, {"measurement": "affinity", "setting": "histamine H1", "value": "minimal to no affinity"}]}
{"smiles": "Cc1ncc(CN2CC=C(c3ccccc3)CC2)c(N)n1", "note": "[Ro 10-5824, 2-Methyl-5-(4-phenyl-1,2,3,6-tetrahydropyridin-1-yl-methyl)pyrimidine-4-amine]", "values": [{"measurement": "correct % of the ORD test", "setting": "common marmosets; Ro 10-5824 alone, 0.3 mg/kg i.m.", "value": "had no effects on the correct %"}, {"measurement": "ORD score", "setting": "common marmosets; single administration i.m., dose series, FIG. 8", "value": "increased the ORD score in a dose dependent manner"}]}
{"smiles": "O=C(CCCN1CCC(O)(c2ccc(Cl)cc2)CC1)c1ccc(F)cc1", "note": "[haloperidol]", "values": [{"measurement": "variation of the correct % of the ORD test (difficult task)", "setting": "common marmosets", "value": "decreased the correct % of the ORD test in a dose-dependent manner"}]}
{"smiles": "O=C1[C@@H]2[C@H]3CC[C@H](C3)[C@@H]2C(=O)N1C[C@@H]1CCCC[C@H]1CN1CCN(c2nsc3ccccc23)CC1", "note": "[lurasidone hydrochloride]", "values": [{"measurement": "ORD score", "setting": "common marmosets; lurasidone hydrochloride 3 mg/kg p.o. combined with Ro 10-5824 0.3 mg/kg i.m., FIG. 8", "value": "the ORD score was significantly increased"}, {"measurement": "correct % of the ORD test", "setting": "common marmosets; lurasidone hydrochloride alone, 3 mg/kg p.o.", "value": "had no effects on the correct %"}, {"measurement": "variation of the correct % of the ORD test (difficult task)", "setting": "common marmosets", "value": "increased the correct % of the ORD test in a dose-dependent manner"}, {"measurement": "Total Arm Entries mean ± SE", "setting": "SHRSP rats; 0.1 mg/kg i.p.", "value": "24 ± 1"}, {"measurement": "% of Alternation Behavior mean ± SE", "setting": "SHRSP rats; 0.1 mg/kg i.p.", "value": "70 ± 5", "unit": "%"}, {"measurement": "Total Arm Entries mean ± SE", "setting": "SHRSP rats; 0.3 mg/kg i.p., P < 0.05", "value": "22 ± 2"}, {"measurement": "% of Alternation Behavior mean ± SE", "setting": "SHRSP rats; 0.3 mg/kg i.p., P < 0.05", "value": "75 ± 2", "unit": "%"}, {"measurement": "Total Arm Entries mean ± SE", "setting": "SHRSP rats; 1.0 mg/kg i.p., P < 0.05", "value": "21 ± 1"}, {"measurement": "% of Alternation Behavior mean ± SE", "setting": "SHRSP rats; 1.0 mg/kg i.p.", "value": "72 ± 2", "unit": "%"}, {"measurement": "Alternation Behavior (in words)", "setting": "SHRSP rats; SHRSP, 0.1, 0.3 or 1.0 mg/kg, significant at 0.3 mg/kg (p=0.0124)", "value": "the Alternation Behavior was improved"}, {"measurement": "number of total Arm Entries (in words)", "setting": "SHRSP rats; SHRSP, 0.1, 0.3 or 1.0 mg/kg, significant at 0.3 (p=0.0096) and 1 (p=0.0047) mg/kg", "value": "showed the decreased number of total Arm Entries"}]}
{"smiles": "Cc1nc2n(c(=O)c1CCN1CCC(c3noc4cc(F)ccc34)CC1)CCCC2", "note": "[risperidone]", "values": [{"measurement": "variation of the correct % of the ORD test (difficult task)", "setting": "common marmosets", "value": "decreased the correct % of the ORD test in a dose-dependent manner"}]}
